Test results as given in patent US20220007651A1, “BACILLUS THURINGIENSIS STRAINS AND METHODS FOR CONTROLLING PESTS” (priority 2018, published 2022).

Assays:
[1] = tested on: Spodoptera exigua Hübner (beet armyworm); assay: Insecticidal assay, second instars on 48-well agar substrate plates; format: in vivo
Excerpt: Zwittermicin A was partially purified from a strain derived from Bacillus thuringiensis strain NRRL B-67688. After growing the strain in a soy-based medium, the whole broth was centrifuged and the supernatant removed. The supernatant was passed through a 3 kDa filter to separate the zwittermicin A from larger molecules including any Cry toxins. The Vip3Aa11 protein was produced in the expression strain of Escherichia coli BL21 and applied to insect larvae as the E. coli whole broth culture (WB) at concentrations of 0.1%, 1%, and 10%. Treatment groups included Vip3Aa11 only (“no Zwa”); Vip3Aa11 with zwittermicin A (“1×Zwa); and Vip3Aa11 with concentrated zwittermicin A (“2×Zwa”) containing twice as much zwittermicin. Concentrations of zwittermicin A and Vip3Aa11 were adjusted by adding deionized water to prepare the appropriate dilutions. Control treatments included zwittermicin A (“1×Zwa”) alone, concentrated zwittermicin A alone (“2×Zwa”), untreated control, and a positive control containing 1000 ppm of a commercially available biological control agent active against Lepidoptera.
To evaluate the insecticidal activity of each treatment, second instars of Spodoptera exigua Hυbner (beet armyworm) were grown on 48-well plates containing an agar substrate similar to that described in Marrone et al., (1985), “Improvements in Laboratory Rearing of the Southern Corn Rootworm, Diabrotica undecimpuncta howardi Barber (Coleoptera: Chrysomelidae), on an Artificial Diet and Corn,” J. Econ. Entomol. 78: 290-293. Each treatment was applied to the agar substrate and a second instar was then placed in the well. After several days, insect development and survival were evaluated. Insect development scores were rated according to the following scale: 1=severely stunted; 2=highly stunted, minimal growth; 3=slightly smaller than untreated control; 4=same size as untreated control. […]
The experiment conducted in Example 3 was repeated with Cry1Ab1, Cry1Ia2, or Cry2Ab1 expressed in Escherichia coli BL21 and applied to insect larvae as the E. coli whole broth culture (WB) at concentrations of 0.2%, 4%, 10%, and 50%. The insect mortality score is based on the following scale: 4=0-25% mortality, 3=26-50% mortality, 2=51-79% mortality, 1=80-100% mortality. All percentages are adjusted according to any mortality observed with untreated control Spodoptera exigua Hυbner (beet armyworm) larvae. […] All reported mortality scores are the average of three replicate measurements.
The experiment in Example 3 was also repeated with Cry1Ca1 and Cry1Da1, which were expressed in Escherichia coli BL21 and applied to insect larvae as the E. coli whole broth culture (WB) at various concentrations. Instead of insect mortality rates, LC50, which in this case is the percentage of whole broth needed to cause 50% mortality, without zwittermicin or with various concentrations of zwittermicin, was determined.

Lepidopteran pests = conditions: Broderick et al., 2000; cited from earlier work
[2] = Cry toxin applied alone, E. coli whole broth 0.2%, 4%, 10%, 50%
[3] = Cry toxin in combination with zwittermicin A (1×Zwa), FIGS. 4A-4C

| Molecule | insect mortality [1, 2] | insect mortality [1, 3] | also measured |
| --- | --- | --- | --- |
| NC(=O)NCC(NC(=O)[C@@H](O)[C@H](O)[C@H](N)C(O)CC(O)C(N)CO)C(N)=O (some centres unmarked) [zwittermicin A] |  |  | insect mortality ([1]; zwittermicin A alone, 1×Zwa): generally had no observable effect on insect mortality; insect mortality ([1]; zwittermicin alone at the concentrations used in the LC50 experiment): generally had no observable effect on insect mortality; effect on insect growth or survival ([1]; zwittermicin alone, 1×Zwa or 2×Zwa): no significant effect on insect growth or survival; insecticidal activity on its own (Lepidopteran pests): little or no observable insecticidal activity |
| Cry1Da1: Cry toxin, SEQ ID NO: 17, expressed in Escherichia coli BL21, applied as whole broth |  |  | ~LC50 ([1]; No Zwa): >10 percentage of whole broth |
| Cry1Ab1: Cry toxin expressed in Escherichia coli BL21, applied as whole broth | demonstrated insect mortality at the higher application rates | significant increase in insect mortality |  |
| Cry1Ia2: Cry toxin, SEQ ID NO: 9, expressed in Escherichia coli BL21, applied as whole broth (protein, listed as Bacillus thuringiensis) MKLKNQDKHQSFSSNAKVDKISTDSLKNETDIELQNINHEDCLKMSEYENVEPFVSASTIQTGIGIAGKILGTLGVPFAGQVASLYSFILGELWPKGKNQWEIFMEHVEEIINQKISTYARNKALTDLKGLGDALAVYHDSLESWVGNRNNTRARSVVKSQYIALELMFVQKLPSFAVSGEEVPLLPIYAQAANLHLLLLRDASIFGKEWGLSSSEISTFYNRQVERAGDYSDHCVKWYSTGLNNLRGTNAESWVRYNQFRRDMTLMVLDLVALFPSYDTQMYPIKTTAQLTREVYTDAIGTVHPHPSFTSTTWYNNNAPSFSAIEAAVVRNPHLLDFLEQVTIYSLLSRWSNTQYMNMWGGHKLEFRTIGGTLNISTQGSTNTSINPVTLPFTSRDVYRTESLAGLNLFLTQPVNGVPRVDFHWKFVTHPIASDNFYYPGYAGIGTQLQDSENELPPEATGQPNYESYSHRLSHIGLISASHVKALVYSWTHRSADRTNTIEPNSITQIPLVKAFNLSSGAAVVRGPGFTGGDILRRTNTGTFGDIRVNINPPFAQRYRVRIRYASTTDLQFHTSINGKAINQGNFSATMNRGEDLDYKTFRTVGFTTPFSFLDVQSTFTIGAWNFSSGNEVYIDRIEFVPVEVTYEAEYDFEKAQEKVTALFTSTNPRGLKTDVKDYHIDQVSNLVESLSDEFYLDEKRELFEIVKYAKQLHIERNM | little observable effect on insect mortality | significant increase in insect mortality |  |
| Cry2Ab1: Cry toxin, SEQ ID NO: 10, expressed in Escherichia coli BL21, applied as whole broth (protein, listed as Bacillus thuringiensis) MNSVLNSGRTTICDAYNVAAHDPFSFQHKSLDTVQKEWTEWKKNNHSLYLDPIVGTVASFLLKKVGSLVGKRILSELRNLIFPSGSTNLMQDILRETEKFLNQRLNTDTLARVNAELTGLQANVEEFNRQVDNFLNPNRNAVPLSITSSVNTMQQLFLNRLPQFQMQGYQLLLLPLFAQAANLHLSFIRDVILNADEWGISAATLRTYRDYLKNYTRDYSNYCINTYQSAFKGLNTRLHDMLEFRTYMFLNVFEYVSIWSLFKYQSLLVSSGANLYASGSGPQQTQSFTSQDWPFLYSLFQVNSNYVLNGFSGARLSNTFPNIVGLPGSTTTHALLAARVNYSGGISSGDIGASPFNQNFNCSTFLPPLLTPFVRSWLDSGSDREGVATVTNWQTESFETTLGLRSGAFTARGNSNYFPDYFIRNISGVPLVVRNEDLRRPLHYNEIRNIASPSGTPGGARAYMVSVHNRKNNIHAVHENGSMIHLAPNDYTGFTISPIHATQVNNQTRTFISEKFGNQGDSLRFEQNNTTARYTLRGNGNSYNLYLRVSSIGNSTIRVTINGRVYTATNVNTTTNNDGVNDNGARFSDINIGNVVASSNSDVPLDINVTLNSGTQFDLMNIMLVPTNISPLY | demonstrated insect mortality at the higher application rates | significant increase in insect mortality |  |
